Assay [1] has as its target human RORγt ligand binding domain (RORγt LBD) (Homo sapiens (Human), UniProt P51449). The assay can be described thus: RORγt ThermoFluor® assay (thermal shift binding). To be noted: read-out: ThermoFluor® Assay, Kd. In short, it runs like this: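 His-tagged human RORγt LBD (0.065 mg/mL) with 60 μM 1,8-ANS in 100 mM Hepes pH 7.0, 10 mM NaCl, 2.5 mM GSH, 0.002% Tween-20 was heated at 1 °C/min.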
(DSF heats the sample and reads unfolding from a dye or from intrinsic fluorescence.)

For another assay, the target named is full-length human RORγt (Homo sapiens (Human), UniProt P51449). The assay can be described thus: RORγt (full-length human) reporter assay, Conditions B or C. Type of assay: cell-based. To be noted: for inhibition at 3 µM: at 3 μM compound concentration, read-out: RORγt (FL) Reporter Assay B or C, % inhibition; for IC50: read-out: RORγt (FL) Reporter Assay B or C, IC50; for RORγt (FL) Reporter Assay B or C, % inhibition (value marked *): marked *: footnote not given. Put shortly:
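HEK293T cells transiently co-transfected with GAL4-DBD–full-length human RORγt (nt 142-1635, NM_001001523.1) plus GAL4-firefly and CMV-Renilla luciferase reporters; compounds added 4-6 h post-transfection for 16-20 h in 1.3% FBS, 0.1% DMSO. Firefly signal normalized to DMSO and saturating reference compound, then to Renilla; IC50 from concentration plots.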
In general terms: Reporter assays use an easily measured gene product as a stand-in for the process of interest.

Like-named read-outs stand apart in the source and are kept apart here.

Chain of full-length human RORγt (P51449 other isoform, or with tags, fused parts or gaps): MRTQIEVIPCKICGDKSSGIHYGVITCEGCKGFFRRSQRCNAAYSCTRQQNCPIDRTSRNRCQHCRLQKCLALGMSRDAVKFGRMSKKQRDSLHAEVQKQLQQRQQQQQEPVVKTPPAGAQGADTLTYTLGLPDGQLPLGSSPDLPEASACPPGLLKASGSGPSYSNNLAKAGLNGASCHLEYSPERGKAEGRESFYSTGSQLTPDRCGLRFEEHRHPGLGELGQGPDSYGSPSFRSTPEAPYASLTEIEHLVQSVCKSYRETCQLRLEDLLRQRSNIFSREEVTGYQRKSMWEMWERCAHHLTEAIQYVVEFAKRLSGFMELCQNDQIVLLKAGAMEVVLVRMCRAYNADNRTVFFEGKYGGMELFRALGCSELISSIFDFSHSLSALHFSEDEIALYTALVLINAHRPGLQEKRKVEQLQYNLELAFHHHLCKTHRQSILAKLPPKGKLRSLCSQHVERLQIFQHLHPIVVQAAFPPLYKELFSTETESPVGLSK
Chain of human RORγt ligand binding domain (RORγt LBD) (P51449 other isoform, or with tags, fused parts or gaps): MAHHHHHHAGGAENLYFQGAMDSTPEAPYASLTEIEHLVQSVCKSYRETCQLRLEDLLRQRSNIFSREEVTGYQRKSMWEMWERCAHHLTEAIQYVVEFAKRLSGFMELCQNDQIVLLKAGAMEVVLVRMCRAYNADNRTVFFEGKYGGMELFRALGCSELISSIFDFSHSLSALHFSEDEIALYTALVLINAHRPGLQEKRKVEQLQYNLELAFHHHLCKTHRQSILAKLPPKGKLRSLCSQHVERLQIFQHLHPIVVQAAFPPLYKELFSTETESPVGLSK

Usually Kd stands for the equilibrium constant for the complex coming apart. As usually defined, the inhibition is the change of the read-out against control, counted positive when it falls. As a reminder, the IC50 is the point on the concentration scale where inhibition reaches its midpoint. With `C[C@H]1CCCN1C(=O)c1nc(C(=O)NC2CCCC2O)sc1-c1cnc(NC(C)(C)C)cc1C(F)(F)F` (stereo partly drawn) [Example 347, 5-[6-(tert-Butylamino)-4-(trifluoromethyl)-3-pyridyl]-N-[cis-2-hydroxycyclopentyl]-4-[(2S)-2-methylpyrrolidine-1-carbonyl]thiazole-2-carboxamide], the Kd in assay [1] was 0.38 nM. In addition, on full-length human RORγt, the inhibition at 3 µM came out at 124% and the IC50 was determined as 3.8 nM.
In the same order, the values of `C[C@H]1CCCN1C(=O)c1nc(C(=O)NCC(O)(C(F)(F)F)C(F)(F)F)sc1-c1cnc(NC(C)(C)C)cc1C(F)F` [Example 264, 5-[6-(tert-Butylamino)-4-(difluoromethyl)-3-pyridyl]-4-[(2S)-2-methylpyrrolidine-1-carbonyl]-N-[3,3,3-trifluoro-2-hydroxy-2-(trifluoromethyl)propyl]thiazole-2-carboxamide] are 4.9 nM, 112% and 28 nM.
Consider `C[C@H](Nc1cc(C(F)F)c(-c2sc(C(=O)N[C@H]3COC[C@H]3O)nc2C(=O)N2CCC[C@@H]2C)cn1)C(F)(F)F` (single isomer, unassigned) [Example 160, 5-(4-(Difluoromethyl)-6-(((S)-1,1,1-trifluoropropan-2-yl)amino)pyridin-3-yl)-N-((3S*,4S*)-4-hydroxytetrahydrofuran-3-yl)-4-((S)-2-methylpyrrolidine-1-carbonyl)thiazole-2-carboxamide], for which the Kd in assay [1] was 8.7 nM. On full-length human RORγt (Conditions B or C), the “RORγt (FL) Reporter Assay B or C, % inhibition (value marked *)” value (from here on “RORγt … % inhibition (value marked *)”) was 101* % and the IC50 came out at 410 nM.
`C[C@H](Nc1cc(C(F)F)c(-c2sc(C(=O)N[C@H]3COC[C@@H]3O)nc2C(=O)N2CC(F)(F)C[C@@H]2C)cn1)C(F)(F)F` [Example 190]: the Kd in assay [1] came to 3.8 nM. Also, at full-length human RORγt (Conditions B or C), the “RORγt … % inhibition (value marked *)” value was 104* % and the IC50 is 34 nM.
Regarding `C[C@H]1CCCN1C(=O)c1nc(C(=O)NC2(C)COC2)sc1-c1cnc(NC(C)(C)C)cc1C(F)(F)F` [Example 253, 5-[6-(tert-Butylamino)-4-(trifluoromethyl)-3-pyridyl]-N-(3-methyloxetan-3-yl)-4-[(2S)-2-methylpyrrolidine-1-carbonyl]thiazole-2-carboxamide], in assay [1], the Kd was found to be 1.9 nM. Besides, at full-length human RORγt, the inhibition at 3 µM was 108% and the IC50 is 7.7 nM.
As to `C[C@H]1CCCN1C(=O)c1nc(C(=O)NCC2(O)CCC2)sc1-c1cnc(NC(C)(C)C)cc1C(F)(F)F` [Example 134, (S)-5-(6-(tert-Butylamino)-4-(trifluoromethyl)pyridin-3-yl)-N-((1-hydroxycyclobutyl)methyl)-4-(2-methylpyrrolidine-1-carbonyl)thiazole-2-carboxamide], the Kd in assay [1] turned out to be 1.2 nM. At full-length human RORγt (Conditions B or C), the “RORγt … % inhibition (value marked *)” value is on record as 108* % and the IC50 is 14 nM.
In the same order, the values of `CC[C@@H](Nc1cc(C(F)F)c(-c2sc(C(=O)N[C@@H]3COC[C@H]3O)nc2C(=O)N2CCC[C@@H]2C)cn1)C(F)(F)F` [Example 204, 5-(4-(Difluoromethyl)-6-(((1R)-1-(trifluoromethyl)propyl)amino)-3-pyridyl)-N-((3R,4S)-4-hydroxytetrahydrofuran-3-yl)-4-((2S)-2-methylpyrrolidine-1-carbonyl)thiazole-2-carboxamide] are 3.6 nM, 105* % and 24 nM.
In the same order, the values of `CCC(C)(C)Nc1cc(C(F)F)c(-c2sc(C(=O)NCC(C)(C)O)nc2C(=O)N2CC(F)(F)C[C@@H]2C)cn1` [Example 94, (S)-4-(4,4-Difluoro-2-methylpyrrolidine-1-carbonyl)-5-(4-(difluoromethyl)-6-(tert-pentylamino)pyridin-3-yl)-N-(2-hydroxy-2-methylpropyl)thiazole-2-carboxamide] are 0.36 nM, 115* % and 12 nM.
With `C[C@H]1CCCN1C(=O)c1nc(C(=O)NCC(C)(C)O)sc1-c1cncc(NC2CCCCC2)c1C#N` [Comparator Example 2, (S)-5-(4-Cyano-5-(cyclohexylamino)pyridin-3-yl)-N-(2-hydroxy-2-methylpropyl)-4-(2-methylpyrrolidine-1-carbonyl)thiazole-2-carboxamide, reference compound], the Kd in assay [1] is 5800 nM. Moreover, the half-maximal inhibitory concentration (IC50) on full-length human RORγt (HEK293T cells) amounted to 3000 nM.
On to `C[C@H](Nc1cc(C(F)F)c(-c2sc(C(=O)NC3CCS(=O)(=O)CC3)nc2C(=O)N2CCC[C@@H]2C)cn1)C(F)(F)F` [Example 187, 5-(4-(Difluoromethyl)-6-(((S)-1,1,1-trifluoropropan-2-yl)amino)pyridine-3-yl)-N-(1,1-dioxidotetrahydro-2H-thiopyran-4-yl)-4-((S)-2-methylpyrrolidine-1-carbonyl)thiazole-2-carboxamide], for which the Kd in assay [1] is 6.8 nM. Also, on full-length human RORγt (Conditions B or C), the “RORγt … % inhibition (value marked *)” value is given as 85* % and the IC50 came to 140 nM.
For `C[C@H]1CCCN1C(=O)c1nc(C(=O)N[C@H]2CC[C@H](O)C2)sc1-c1cnc(NC(C)(C)C)cc1C(F)F` [Example 414, 5-[6-(tert-Butylamino)-4-(difluoromethyl)-3-pyridyl]-N-[(1S,3S)-3-hydroxycyclopentyl]-4-[(2S)-2-methylpyrrolidine-1-carbonyl]thiazole-2-carboxamide], the Kd in assay [1] is 1.7 nM. For the same compound, at full-length human RORγt, the inhibition at 3 µM worked out at 110% and the IC50 came to 13 nM.
Turning to `C[C@H]1CCCN1C(=O)c1nc(C(=O)NCC(C)(C)O)sc1-c1cnc(NC(C)(C)C(F)(F)F)cc1C(F)(F)F` [Example 132, (S)—N-(2-Hydroxy-2-methylpropyl)-4-(2-methylpyrrolidine-1-carbonyl)-5-(6-((1,1,1-trifluoro-2-methylpropan-2-yl)amino)-4-(trifluoromethyl)pyridin-3-yl)thiazole-2-carboxamide], the Kd in assay [1] is 0.41 nM. In addition, on full-length human RORγt (Conditions B or C), the “RORγt … % inhibition (value marked *)” value is given as 112* % and the IC50 amounted to 14 nM.
For `C[C@H]1CCCN1C(=O)c1nc(C(=O)N[C@H](C)C(C)(C)O)sc1-c1cnc(NC(C)(C)C)cc1C(F)(F)F` [Example 335, 5-[6-(tert-Butylamino)-4-(trifluoromethyl)-3-pyridyl]-N-[(1R)-2-hydroxy-1,2-dimethyl-propyl]-4-[(2S)-2-methylpyrrolidine-1-carbonyl]thiazole-2-carboxamide], in assay [1], the Kd came out at 1.3 nM. In addition, at full-length human RORγt, the inhibition at 3 µM came to 102% and the IC50 is 40 nM.
For the compound `CCC(C)(C)Nc1cc(C(F)F)c(-c2sc(C(=O)NCC(C)(C)O)nc2C(=O)N2CCCC[C@@H]2C)cn1` [Example 95, (S)-5-(4-(Difluoromethyl)-6-(tert-pentylamino)pyridin-3-yl)-N-(2-hydroxy-2-methylpropyl)-4-(2-methylpiperidine-1-carbonyl)thiazole-2-carboxamide], the Kd in assay [1] is 0.15 nM. In addition, on full-length human RORγt (Conditions B or C), the “RORγt … % inhibition (value marked *)” value is recorded as 109* % and the IC50 stood at 9.5 nM.
`C[C@H]1CCCN1C(=O)c1nc(C(=O)N2CCC(C)(O)C2)sc1-c1cnc(NC(C)(C)C)cc1C(F)(F)F` (stereo partly drawn) [Example 364, (5-(6-(tert-Butylamino)-4-(trifluoromethyl)pyridin-3-yl)-2-(3-hydroxy-3-methylpyrrolidine-1-carbonyl)thiazol-4-yl)((S)-2-methylpyrrolidin-1-yl)methanone]: the Kd in assay [1] was 7.9 nM. For the same compound, at full-length human RORγt, the inhibition at 3 µM is 111% and the IC50 was 39 nM.
In the same order, the values of `CC[C@H](Nc1cc(C(F)F)c(-c2sc(C(=O)N[C@H](C)CO)nc2C(=O)N2CC(F)(F)C[C@@H]2C)cn1)C(F)(F)F` [Example 423, 4-[(2S)-4,4-Difluoro-2-methyl-pyrrolidine-1-carbonyl]-5-[4-(difluoromethyl)-6-[[(1S)-1-(trifluoromethyl)propyl]amino]-3-pyridyl]-N-[(1R)-2-hydroxy-1-methyl-ethyl]thiazole-2-carboxamide] are 1.1 nM, 103% and 38 nM.
In the case of `C[C@H]1CCCN1C(=O)c1nc(C(=O)N(C)CC(C)(C)O)sc1-c1cnc(NC(C)(C)C)cc1C(F)(F)F` [Example 340, 5-[6-(tert-Butylamino)-4-(trifluoromethyl)-3-pyridyl]-N-(2-hydroxy-2-methyl-propyl)-N-methyl-4-[(2S)-2-methylpyrrolidine-1-carbonyl]thiazole-2-carboxamide], the Kd in assay [1] came to 5.3 nM. Also, on full-length human RORγt, the inhibition at 3 µM was 111% and the IC50 was determined as 11 nM.
Regarding `CC(C)(O)CNC(=O)c1nc(C(=O)N2C3CCC2CC3)c(-c2cnc(NC(C)(C)C3CC3)cc2C(F)F)s1` [Example 97, 4-((1s,4s)-7-Azabicyclo[2.2.1]heptane-7-carbonyl)-5-(6-((2-cyclopropylpropan-2-yl)amino)-4-(difluoromethyl)pyridin-3-yl)-N-(2-hydroxy-2-methylpropyl)thiazole-2-carboxamide], the Kd in assay [1] was 1.3 nM. Moreover, at full-length human RORγt (Conditions B or C), the “RORγt … % inhibition (value marked *)” value is 111* % and the IC50 is 3.6 nM.

(Values after patent US10975068B2, “6-aminopyridin-3-yl thiazoles as modulators of RORγT” (Janssen Pharmaceutica NV, priority 2016, dated 2021).)
